Patent publication US20160250142A1, “INHALED AEROSOLIZED IMMUNO-CHEMOTHERAPY FOR THE TREATEMENT OF MDR TB” (priority 2013, published 2016)
Several values for one entry are separate records, joined by “and”; a condition that tells them apart may be missing. Identical values can stand only once. Like-named read-outs stand apart in the source and are kept apart here.

B1: Actimmune: Actimmune® (IFN-γ; Interferon gamma-1b), 100 μg/0.5 mL vial diluted 1:1400 (protein, UniProt P01579 24-161, looked up)
Interferon gamma: QDPYVKEAENLKKYFNAGHSDVADNGTLFLGILKNWKEESDRKIMQSQIVSFYFKLFKNFKDDQSIQKSVETIKEDMNVKFFNSNKKKRDDFEKLTNYSVTDLNVQRKAIHELIQVMAELSPAAKTGKRKRSQMLFRG

What was measured:
[1] = NGI impactor test of nebulized respiratory solutions (aerosol particle size); type: physicochemical; settings: fractions by HPLC
Protocol: FIG. 1. Graphical representation of the NGI impactor test for Metronidazole respiratory solution (8 mg/mL).
FIG. 2. Graphical representation of the NGI impactor test for Amikacin respiratory solution (200 mg/mL).
FIG. 3. Graphical representation of the NGI impactor test for Levofloxacin respiratory solution (250 mg/mL).
The nebulization drug formulations were nebulized and passed through an NGI impactor (Westech Corporation). These experiments show the fraction of drug in various stages of the impactor (FIGS. 1-3). It was shown that significant amounts of the drug compounds were obtained at the different stages, which corresponds to the respirable fraction that would be deposited in the lungs. The drug fractions were analyzed by HPLC.

[2] = Plasma and lung drug levels in mice after MicroSprayer endotracheal delivery (LC/MS/MS); settings: for concentration at 1 h / concentration at 8 h: female, C57BL/6, mouse; for Lung levels compared to plasma levels / Plasma and lung levels 8 hours post dose compared to 1 hour post dose: endotracheal delivery; for Lung Levels: 8 hour (Range): Table 14 summary, dose delivered 240/150/50 μg in 100 μL
Protocol: Observations were taken at 1 and 8 hour time points within lung tissue as well as the plasma of individual animals.
For microsprayer dosing via endotracheal administration, mice were anesthetized by Ketamine/Xylazine (K/X) sedation (50 mg/kg Ketamine and 5 mg/kg Xylazine) administered intraperitoneally (IP). […] A Bair Hugger warm air unit was used to keep animals warm during recovery from K/X anesthesia (i.e. after dosing).
On Day 0, mice were endotracheally intubated with a MicroSprayer® Aerosolizer (Penn-Century™, Inc.; Wyndmoor, Pa.) and test articles were delivered in the airways at a dose volume of 100 μL/dose at various dose levels.
Animals were used for collection of blood samples and the entire lung for plasma and drug level determinations. Each mouse was anesthetized with CO2/O2 and terminally bled via retro-orbital into tubes containing K2EDTA. Upon collection each blood sample was mixed by gentle inversion, placed on ice, and subsequently centrifuged to separate plasma. Plasma samples were processed on the day they were collected, or were snap frozen using liquid nitrogen and stored frozen (at or below −70° C.) until analyzed.
Animals in Subgroup A were used for collection of blood samples for plasma drug level determinations at the 1 hour post dose time point following Day 0 dosing; samples were collected within ±3% of target time. Animals in Subgroup B were used for collection of blood samples for plasma drug level determinations at the 8 hour post dose time point following Day 0 dosing; samples were collected within ±3% of target time (Table 8).
Immediately following each subgroups blood collection time point, each animal was euthanized using CO2 and the entire lung was collected for tissue drug level determinations (within 15 minutes after the blood sample), weighed, and snap-frozen. Lung samples were snap frozen using liquid nitrogen or dry ice and stored frozen (at or below −70° C.) until analyzed. […] Animals in Groups 1-3 had aerosol content (ng/mL), plasma content (ng/mL) and lung level (ng/g) assessed for parent using an appropriate LC/MS/MS method.

[3] = tested on: TB (Mycobacterium tuberculosis); settings: reported for reference only; metronidazole MIC not established for TB; cited from earlier work
[4] = type: in vivo, female C57BL/6 mice; settings: number of animals
Protocol: Detailed observations were recorded prior to dosing and prior to euthanasia.
All animals survived to their scheduled euthanasia time point on Day 0 (1 hour or 8 hours post dosing). All animals were normal (no clinical abnormalities) prior to dosing on Day 0 and prior to euthanasia 1 hour or 8 hours post dosing.

[5] = Human IFN-γ levels in mouse lung and plasma after aerosol delivery (ELISA); type: in vivo, female C57BL/6 mice; settings: for IFN-g Level in mouse plasma: plasma diluted 1:2, ELISA sensitivity <2 pg/mL; for IFN-g Level in lung homogenate: mouse lung homogenized in 10 mL buffer; for IFN-g Level in lung homogenate / ng of IFN-g per gm of tissue: individual animals; for ng of IFN-g per gm of tissue / ng of IFN-g per gm of tissue, Mean: mouse lung; for ng of IFN-g per gm of tissue, Mean: mean of 3
Protocol: Actimmune® (IFN-γ; Interferon gamma-1b) was diluted in the dilution solution excipient as per manufacturer's directions. The contents of one (1) vial (100 μg/0.5 mL) were gently diluted to a final volume of 700 mL using the dilution solution excipient. This represented a 1:1400 dilution. Test articles A-C were supplied in a ready to use form and no additional formulations were required. All residual test articles were stored at room temperature (15-30° C.) or refrigerated (2-8° C.).

[6] = lung, Lung levels 1 hour post dose (range), mice, endotracheal MicroSprayer, Subgroup A
[7] = lung, Lung levels 8 hour post dose (range), mice, endotracheal MicroSprayer, Subgroup B
[8] = plasma, Plasma levels 1 hour post dose (range), mice, endotracheal MicroSprayer, Subgroup A, 3 animals
[9] = plasma, Plasma levels 8 hour post dose (range), mice, endotracheal MicroSprayer, Subgroup B, 3 animals
[10] = mice, IT, 1 hr, individual animals
[11] = mice, IT, 1 hr, individual animals, nominal dose 0.48/0.3/0.1 mg/animal (delivered about 50%)
[12] = mice, IT, 8 hr, individual animals
[13] = mice, IT, 8 hr, individual animals, nominal dose 0.48/0.3/0.1 mg/animal
[14] = lung, Lung Concentration (μg/g) of Tissue, mice, IT, 1 hr, individual animals
[15] = lung, Lung Concentration, mice, IT, 1 hr, individual animals
[16] = plasma, Plasma Concentration, mice, IT, 1 hr, individual animals, nominal dose 0.48/0.3/0.1 mg/animal (delivered about 50%)
[17] = plasma, Plasma Concentration, mice, IT, 8 hr, individual animals, nominal dose 0.48/0.3/0.1 mg/animal
[18] = mice, endotracheal MicroSprayer, Subgroup B, 3 animals

Molecule	Droplets produced on nebulization [1]	concentration at 1 h [2, 6] [ng/g]	concentration at 8 h [2, 7] [ng/g]	concentration at 1 h [2, 8] [ng/mL]	concentration at 8 h [2, 9] [ng/mL]	Lung Concentration [2, 10]	Lung Concentration (μg/g) of Tissue [2, 10]	Plasma Concentration [2, 11]	Lung Concentration [2, 12]	Plasma Concentration [2, 13]	Lung levels compared to plasma levels ([2]; mice)	Plasma and lung levels 8 hours post dose compared to 1 hour post dose ([2]; mice)	Reported MIC [3]	ANIMALS ALIVE ([4]; Day 0, 1 hr post dose)	ANIMALS NORMAL ([4]; Day 0, 1 hr post dose)	ANIMALS ALIVE ([4]; Day 0, 8 hr post dose)	ANIMALS NORMAL ([4]; Day 0, 8 hr post dose)	Lung Levels: 8 hour (Range) [2]	concentration at 1 h [2, 14] [ng/g]	concentration at 1 h [2, 15] [ng/g]	further results
NCC[C@H](O)C(=O)N[C@@H]1C[C@H](N)[C@@H](O[C@H]2O[C@H](CN)[C@@H](O)[C@H](O)[C@H]2O)[C@H](O)[C@H]1O[C@H]1O[C@H](CO)[C@@H](O)[C@H](N)[C@H]1O [Amikacin]	droplets in the respirable range	3990 to 9480	351 to 3060	2300 to 7140	152 to 406	4830 ng/g and 9480 ng/g and 3990 ng/g	33.6 µg/g and 64.9 µg/g and 27.0 µg/g	7140 ng/mL and 4820 ng/mL and 2300 ng/mL	3060 ng/g and 443 ng/g and 351 ng/g	406 ng/mL and 156 ng/mL and 152 ng/mL	higher	decreased	0.5 μg/mL (500 ng/mL)	6	3	3	3				Lung Concentration (μg/g) of Tissue [2, 12]: 19.0 µg/g and 3.05 µg/g and 1.99 µg/g
C[C@H]1COc2c(N3CCN(C)CC3)c(F)cc3c(=O)c(C(=O)O)cn1c23 [Levofloxacin]		1610 to 2270	1200	534 to 815	53	2270 ng/g and 1610 ng/g	16.9 µg/g and 10.4 µg/g	815 ng/mL and 534 ng/mL	BQL	BQL	increased	decreased		6	3	3	3	7590 ng/g - ng/g of lung tissue	13800	2140	concentration at 8 h ([2]; lung, Lung Concentration (μg/g) of Tissue, mice, IT, 8 hr, individual animals): 7560 ng/g; concentration at 8 h ([2]; lung, Lung Concentration, mice, IT, 8 hr, individual animals): 1200 ng/g; concentration at 1 h [2, 16]: 556 ng/mL; concentration at 8 h [2, 17]: 53 ng/mL; Plasma levels 8 hour post dose (range) [2, 18]: 53.0 ng/mL; Plasma levels 8 hour post dose (range) ([2]; mice, endotracheal MicroSprayer, Subgroup B, 3 animals, listed as LEVOFLOXACIN): 53 ng/mL -
Cc1ncc([N+](=O)[O-])n1CCO [Metronidazole]	droplets in the respirable range	1070 to 1640		1670 to 2290	42.3	1070 ng/g and 1270 ng/g	6.50 µg/g and 8.27 µg/g	1670 ng/mL and 1880 ng/mL	BQL	BQL	increased	decreased	250 μg/mL in (250,000 ng/mL)	6	3	3	3	Not detected	11700	1640	concentration at 1 h [2, 16]: 2290 ng/mL; concentration at 8 h [2, 17]: 42.3 ng/mL; Lung levels 8 hour post dose (range) ([2]; mice, endotracheal MicroSprayer, Subgroup B): not detectable; Plasma levels 8 hour post dose (range) [2, 18]: 42.3 ng/mL -
B1														6	3	3	3				IFN-g Level in mouse plasma ([5]; 1 hr post dose): not detectable and below detectable levels (BDL) and BDL^a and BDL; IFN-g Level in mouse plasma ([5]; 1 hr post dose, listed as INTERFERON-gamma): Not Detectable; IFN-g Level in mouse plasma ([5]; 8 hr post dose): not detectable and below detectable levels (BDL) and BDL; IFN-g Level in mouse plasma ([5]; 8 hr post dose, listed as INTERFERON-gamma): Not Detectable; Plasma and lung levels 8 hours post dose compared to 1 hour post dose ([5]; mice, endotracheal delivery): decreased; IFN-g Level in lung homogenate ([5]; 1 hr post dose): 1732.7 pg/mL and 1248.4 pg/mL and 1109.4 pg/mL; IFN-g Level in lung homogenate ([5]; 8 hr post dose): 1006.2 pg/mL and 1578.0 pg/mL and 1307.7 pg/mL; ng of IFN-g per gm of tissue ([5]; 1 hr post dose): 116.8 ng per gm of tissue and 87.9 ng per gm of tissue and 75.4 ng per gm of tissue; ng of IFN-g per gm of tissue, Mean ([5]; 1 hr post dose): 93.3 ng per gm of tissue; ng of IFN-g per gm of tissue ([5]; 8 hr post dose): 58.3 ng per gm of tissue and 72.2 ng per gm of tissue and 102.6 ng per gm of tissue; ng of IFN-g per gm of tissue, Mean ([5]; 8 hr post dose): 77.7 ng per gm of tissue
